Experimental data taken from article doi:10.1101/208439v1 (biorxiv, 2017).
pIC50: −log10 of the molar value. Read-outs that look alike come from different tables or passages of the source.

Assays:
PRMT3 = PRMT3 (Homo sapiens, UniProt O60678); assay: HotSpot [3H]SAM filter-binding methyltransferase assay; type: biochemical; parameters: residues 2-531, N-terminal His tag, E. coli
PRMT1 = target: T1, PRMT1 (Homo sapiens, UniProt Q99873); assay: as above; type: biochemical
T1 construct: residues 2-371, N-terminal GST fusion, E. coli
T1 sequence (Q99873 2-353 isoform Q99873-3): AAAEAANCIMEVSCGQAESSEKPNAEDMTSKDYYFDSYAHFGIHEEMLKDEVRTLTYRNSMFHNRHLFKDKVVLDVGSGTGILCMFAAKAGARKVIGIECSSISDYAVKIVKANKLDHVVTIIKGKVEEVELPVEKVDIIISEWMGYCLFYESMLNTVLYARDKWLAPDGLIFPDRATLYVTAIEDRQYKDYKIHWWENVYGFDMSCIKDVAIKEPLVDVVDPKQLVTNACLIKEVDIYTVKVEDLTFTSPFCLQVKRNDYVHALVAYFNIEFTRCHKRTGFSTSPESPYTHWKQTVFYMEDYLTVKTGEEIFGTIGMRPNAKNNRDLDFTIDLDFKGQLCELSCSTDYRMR

NSD2 = target: T2, NSD2 (Homo sapiens, UniProt O96028, E1099K); assay: biochemical; parameters: MTase-Glo bioluminescence methyltransferase assay, full-length NSD2 with HeLa nucleosomes; conditions: read-out: MTase-Glo IC50
T2 construct: full length (residues 2-1365), N-terminal His tag, insect cell/baculovirus
T2 sequence (O96028 2-1365 E1099K): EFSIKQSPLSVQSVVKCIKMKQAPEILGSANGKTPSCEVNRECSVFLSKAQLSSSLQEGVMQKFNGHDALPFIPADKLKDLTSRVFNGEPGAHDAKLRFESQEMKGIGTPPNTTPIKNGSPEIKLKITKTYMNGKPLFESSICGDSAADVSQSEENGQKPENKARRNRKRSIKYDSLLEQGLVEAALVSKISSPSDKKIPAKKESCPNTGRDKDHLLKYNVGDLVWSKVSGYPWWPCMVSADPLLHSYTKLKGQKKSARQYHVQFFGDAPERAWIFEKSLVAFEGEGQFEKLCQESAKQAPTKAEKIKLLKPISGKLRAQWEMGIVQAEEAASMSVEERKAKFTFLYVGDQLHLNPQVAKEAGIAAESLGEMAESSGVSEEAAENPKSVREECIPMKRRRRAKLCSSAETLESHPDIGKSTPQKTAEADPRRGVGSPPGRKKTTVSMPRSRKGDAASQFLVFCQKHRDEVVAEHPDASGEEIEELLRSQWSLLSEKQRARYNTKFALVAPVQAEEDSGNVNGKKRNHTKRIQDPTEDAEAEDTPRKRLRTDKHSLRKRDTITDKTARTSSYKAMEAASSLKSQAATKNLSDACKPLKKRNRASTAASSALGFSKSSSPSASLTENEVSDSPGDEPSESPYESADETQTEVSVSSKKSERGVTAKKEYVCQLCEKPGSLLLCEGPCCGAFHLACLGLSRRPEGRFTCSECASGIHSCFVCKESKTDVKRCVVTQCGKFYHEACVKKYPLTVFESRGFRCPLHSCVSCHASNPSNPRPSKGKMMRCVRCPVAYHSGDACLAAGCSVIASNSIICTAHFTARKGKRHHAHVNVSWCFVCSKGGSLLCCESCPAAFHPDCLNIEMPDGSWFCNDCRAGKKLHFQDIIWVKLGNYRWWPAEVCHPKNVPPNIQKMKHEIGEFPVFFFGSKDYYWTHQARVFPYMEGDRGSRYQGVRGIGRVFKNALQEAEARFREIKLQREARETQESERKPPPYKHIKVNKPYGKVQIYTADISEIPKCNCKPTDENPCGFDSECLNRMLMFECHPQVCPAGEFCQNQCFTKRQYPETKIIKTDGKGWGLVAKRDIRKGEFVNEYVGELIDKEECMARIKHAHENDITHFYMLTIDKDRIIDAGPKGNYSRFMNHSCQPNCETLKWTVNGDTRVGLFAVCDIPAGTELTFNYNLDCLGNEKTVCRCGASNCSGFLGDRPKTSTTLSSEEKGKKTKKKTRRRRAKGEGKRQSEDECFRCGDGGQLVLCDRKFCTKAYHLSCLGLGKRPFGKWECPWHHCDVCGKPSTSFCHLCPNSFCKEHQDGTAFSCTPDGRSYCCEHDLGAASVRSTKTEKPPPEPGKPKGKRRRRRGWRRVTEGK
Excerpt: A major challenge in screening for small molecule inhibitors is that native NSD2 requires nucleosomes as a substrate ([17]). […] Chemical libraries were screened in 3-dose point quantitative high-throughput screening (qHTS) format ([43]) with the Methyltransferase-Glo (MTase-Glo™) methyltransferase bioluminescence assay ([44]). A number of counter and orthogonal assays were also developed to characterize the hits from the primary screen. Confirmed hits were validated with a radiolabeled SAM substrate-based NSD2 activity assay and further interrogated with binding studies by surface plasmon resonance (SPR), methyltransferase profiling, and activity assessments in U-2 OS cells. […] Overall the reaction conditions were very similar.

DOT1L = target: T3, DOT1L (Homo sapiens, UniProt Q8TEK3); assay: HotSpot [3H]SAM filter-binding methyltransferase assay; type: biochemical
T3 construct: residues 1-416, N-terminal GST fusion, E. coli
T3 sequence (Q8TEK3 1-416): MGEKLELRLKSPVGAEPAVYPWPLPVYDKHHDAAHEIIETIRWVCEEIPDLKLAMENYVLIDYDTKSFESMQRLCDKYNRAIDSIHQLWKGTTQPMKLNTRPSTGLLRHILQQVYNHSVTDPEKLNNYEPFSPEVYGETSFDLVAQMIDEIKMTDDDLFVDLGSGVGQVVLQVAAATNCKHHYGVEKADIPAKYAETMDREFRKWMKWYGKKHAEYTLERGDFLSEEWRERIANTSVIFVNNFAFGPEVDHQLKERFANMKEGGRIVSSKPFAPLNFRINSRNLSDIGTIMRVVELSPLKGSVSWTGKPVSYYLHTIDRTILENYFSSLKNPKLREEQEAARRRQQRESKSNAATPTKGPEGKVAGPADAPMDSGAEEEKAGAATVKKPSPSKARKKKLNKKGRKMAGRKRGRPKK

SMYD1 = target: T4, SMYD1 (Homo sapiens, UniProt Q8NB12); assay: biochemical
T4 sequence (Q8NB12 1-490): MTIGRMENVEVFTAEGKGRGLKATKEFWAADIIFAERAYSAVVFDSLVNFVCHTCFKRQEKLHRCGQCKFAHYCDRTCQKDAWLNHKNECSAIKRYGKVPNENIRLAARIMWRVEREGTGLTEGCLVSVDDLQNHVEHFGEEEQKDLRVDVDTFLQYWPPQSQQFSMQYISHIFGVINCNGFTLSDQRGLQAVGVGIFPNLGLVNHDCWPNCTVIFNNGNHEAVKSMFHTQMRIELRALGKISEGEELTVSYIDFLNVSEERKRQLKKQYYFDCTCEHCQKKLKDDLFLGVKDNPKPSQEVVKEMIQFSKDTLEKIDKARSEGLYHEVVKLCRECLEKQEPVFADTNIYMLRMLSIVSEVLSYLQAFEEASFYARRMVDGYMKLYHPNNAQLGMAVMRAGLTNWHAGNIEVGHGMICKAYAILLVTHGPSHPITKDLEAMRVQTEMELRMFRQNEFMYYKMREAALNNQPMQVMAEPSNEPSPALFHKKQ

[1] = histone H4, […] SAM, pH […] MgCl2, […] DTT, […] °C, single experiment

Chain of PRMT3 (O60678 2-531): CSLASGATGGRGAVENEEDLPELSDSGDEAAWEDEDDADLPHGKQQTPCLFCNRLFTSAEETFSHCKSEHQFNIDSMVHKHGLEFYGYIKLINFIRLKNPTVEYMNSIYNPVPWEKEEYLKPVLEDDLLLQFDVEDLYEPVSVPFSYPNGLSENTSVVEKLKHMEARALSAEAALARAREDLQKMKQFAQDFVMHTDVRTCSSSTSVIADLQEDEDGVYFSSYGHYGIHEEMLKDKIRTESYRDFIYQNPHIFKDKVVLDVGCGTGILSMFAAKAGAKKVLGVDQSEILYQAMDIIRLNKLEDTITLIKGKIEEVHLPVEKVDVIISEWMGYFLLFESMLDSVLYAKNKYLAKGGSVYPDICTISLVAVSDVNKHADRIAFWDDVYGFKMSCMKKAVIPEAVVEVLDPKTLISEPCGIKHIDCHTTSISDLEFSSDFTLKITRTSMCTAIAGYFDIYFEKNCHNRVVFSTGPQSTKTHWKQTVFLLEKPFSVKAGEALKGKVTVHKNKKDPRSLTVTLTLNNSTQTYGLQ

CC1(C)CCC(CN2CCN(c3ccc(C(=O)NS(=O)(=O)c4ccc(NCC5CCOCC5)c([N+](=O)[O-])c4)c(Oc4cnc5[nH]ccc5c4)c3)CC2)=C(c2ccc(Cl)cc2)C1 [ABT-199]
pIC50 (PRMT3): 4.44
pIC50 (PRMT1): 4.08
pIC50 (NSD2): 4.82
pIC50 (DOT1L): 5.70

O=C1C(Cl)=C(NCCN2CCOCC2)C(=O)c2ncccc21 [DA3003-1]
pIC50 (SMYD1; read-out: DA3003-1 IC50, inhibitor): 6.00
pIC50 (NSD2; inhibitor): 5.55

COc1cccc(-n2nc(C(=O)O)cc2-c2ccc(C3CCCCC3)c(Cl)c2)c1 [TC LPA5 4]
pIC50 (PRMT3; [1]): 5.24
pIC50 (PRMT1; [1]): 4.17
pIC50 (SMYD1): 4.68
pIC50 (DOT1L; nucleosomes, […] SAM, pH […] MgCl2, […] DTT, […] °C, single experiment): 5.09
